Like-named read-outs stand apart in the source and are kept apart here.
What was measured:
Melatonin MT1 = Melatonin MT1 (Homo sapiens, UniProt P48039); test: Radioligand binding assay; conditions: 10 μM; 25 °C, 180 min
Imidazoline I2, Central = test: Radioligand binding assay; design: species or system rat; conditions: 10 μM; 25 °C, 30 min
[1] = molecular target: Leukotriene, Cysteinyl CysLT 1 (Homo sapiens, UniProt Q9Y271); test: Radioligand binding assay; conditions: 10 μM; 25 °C, 30 min
human whole blood = test: Cytokine induction in human whole blood assay; assay type: cell-based; conditions: three donors (figures 1D–F)
human PBMC = test: IFN-γ secretion by stimulated PBMC; assay type: cell-based
Opiate 51 (OP1, DOP) = Opiate 51 (OP1, DOP) (Homo sapiens, UniProt P41143); test: Radioligand binding assay; conditions: 10 μM; 25 °C, 60 min
CYP450, 2C9 = CYP450, 2C9 (Homo sapiens, UniProt P11712); test: Cytochrome P450 enzyme assay; assay type: in vitro ADME; conditions: 10 μM; 37 °C, 45 min
[2] = molecular target: Nicotinic Acetylcholine a1, Bungarotoxin (Homo sapiens, UniProt P02708+P07510+Q07001); test: Radioligand binding assay; conditions: 10 μM; 25 °C, 120 min
Glutamate, Kainate = test: Radioligand binding assay; design: species or system rat; conditions: 10 μM; 4 °C, 60 min
Muscarinic M2 = Muscarinic M2 (Homo sapiens, UniProt P08172); test: Radioligand binding assay; conditions: 10 μM; 25 °C, 120 min
Opiate K (OP2, KOP) = Opiate K (OP2, KOP) (Homo sapiens, UniProt P41145); test: Radioligand binding assay; conditions: 10 μM; 25 °C, 60 min
GABAA, Muscimol, Central = test: Radioligand binding assay; design: species or system rat; conditions: 10 μM; 4 °C, 10 min
Dopamine D4.2 = Dopamine D4.2 (Homo sapiens, UniProt P21917, DEL265-296); test: Radioligand binding assay; conditions: 10 μM; 25 °C, 120 min
[3] = molecular target: Transporter, Norepinephrine (NET) (Homo sapiens, UniProt P23975); test: Radioligand binding assay; conditions: 10 μM; 4 °C, 180 min
Adrenergic β1 = Adrenergic β1 (Homo sapiens, UniProt P08588); test: Radioligand binding assay; conditions: 10 μM; 25 °C, 120 min
[4] = tested on: Calcium Channel L-Type, Benzothiazepine; test: Radioligand binding assay; design: species or system rat; conditions: 10 μM; 4 °C, 180 min
[5] = Serum drug concentration after topical skin application; conditions: mice, TMX-202 from TMX-202 gel, IMQ from Aldara
Adenosine A3 = Adenosine A3 (Homo sapiens, UniProt P0DMS8); test: Radioligand binding assay; conditions: 10 μM; 25 °C, 60 min
[6] = tested on: primary bone marrow derived dendritic cells (BMDC); test: Cytokine induction; assay type: cell-based, mouse; conditions: graded doses overnight, ELISA (figures 1B, C)
Estrogen ERa = Estrogen ERa (Homo sapiens, UniProt P03372); test: Radioligand binding assay; conditions: 10 μM; 25 °C, 120 min
Purinergic P2x = test: Radioligand binding assay; design: species or system rabbit; conditions: 10 μM; 25 °C, 30 min
[7] = assay type: in vivo, mice; conditions: for Body weight change after a single intravenous injection of the MTD: 150 mg/kg TMX-202 or 15 mg/kg IMQ i.v. (figure 4)
Adrenergic β2 = Adrenergic β2 (Homo sapiens, UniProt P07550); test: Radioligand binding assay; conditions: 10 μM; 25 °C, 60 min
Adenosine A2A = Adenosine A2A (Homo sapiens, UniProt P29274); test: Radioligand binding assay; conditions: 10 μM; 25 °C, 90 min
Potassium Channel [KATP] = test: Radioligand binding assay; design: species or system human; conditions: 10 μM; 25 °C, 120 min
Dopamine D3 = Dopamine D3 (Homo sapiens, UniProt P35462); test: Radioligand binding assay; conditions: 10 μM; 37 °C, 120 min
Rolipram = test: Radioligand binding assay; design: species or system rat; conditions: 10 μM; 4 °C, 60 min
CYP450, 2D6 = CYP450, 2D6 (Homo sapiens, UniProt P10635); test: Cytochrome P450 enzyme assay; assay type: in vitro ADME; conditions: 10 μM; 37 °C, 45 min
Nicotinic Acetylcholine = test: Radioligand binding assay; design: species or system human; conditions: 10 μM; 25 °C, 60 min

Sequence of Transporter, Norepinephrine (NET) (P23975 whole entry): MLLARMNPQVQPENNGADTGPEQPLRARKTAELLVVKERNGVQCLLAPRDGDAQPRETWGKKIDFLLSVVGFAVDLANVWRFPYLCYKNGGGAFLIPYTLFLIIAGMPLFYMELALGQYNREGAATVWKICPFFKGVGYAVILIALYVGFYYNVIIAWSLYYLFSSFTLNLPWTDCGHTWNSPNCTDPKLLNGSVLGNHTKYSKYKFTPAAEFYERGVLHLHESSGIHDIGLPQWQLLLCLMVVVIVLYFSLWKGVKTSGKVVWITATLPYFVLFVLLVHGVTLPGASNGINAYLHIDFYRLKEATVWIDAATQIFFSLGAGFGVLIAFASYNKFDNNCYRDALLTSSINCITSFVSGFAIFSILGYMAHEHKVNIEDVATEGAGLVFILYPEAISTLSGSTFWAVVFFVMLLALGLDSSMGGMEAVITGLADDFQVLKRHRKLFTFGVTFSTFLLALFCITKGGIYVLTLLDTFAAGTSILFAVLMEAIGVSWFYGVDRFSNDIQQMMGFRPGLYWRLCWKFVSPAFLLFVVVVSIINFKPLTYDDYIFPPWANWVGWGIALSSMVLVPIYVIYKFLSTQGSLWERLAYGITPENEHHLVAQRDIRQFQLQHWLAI
Sequence of Nicotinic Acetylcholine a1, Bungarotoxin (P02708 21-457): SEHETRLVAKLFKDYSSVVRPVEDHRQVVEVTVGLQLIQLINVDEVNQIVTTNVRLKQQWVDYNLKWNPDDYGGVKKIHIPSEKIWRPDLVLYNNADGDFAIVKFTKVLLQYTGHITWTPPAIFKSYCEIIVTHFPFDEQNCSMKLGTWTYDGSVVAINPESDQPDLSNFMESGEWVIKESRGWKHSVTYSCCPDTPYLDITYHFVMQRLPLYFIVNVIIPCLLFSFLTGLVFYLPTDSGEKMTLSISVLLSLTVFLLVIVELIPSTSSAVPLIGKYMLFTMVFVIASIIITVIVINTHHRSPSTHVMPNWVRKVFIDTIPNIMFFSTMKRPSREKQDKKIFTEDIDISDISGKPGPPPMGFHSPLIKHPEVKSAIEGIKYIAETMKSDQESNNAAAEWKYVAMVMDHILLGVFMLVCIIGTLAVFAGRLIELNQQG
Sequence of Nicotinic Acetylcholine a1, Bungarotoxin (P07510 23-517): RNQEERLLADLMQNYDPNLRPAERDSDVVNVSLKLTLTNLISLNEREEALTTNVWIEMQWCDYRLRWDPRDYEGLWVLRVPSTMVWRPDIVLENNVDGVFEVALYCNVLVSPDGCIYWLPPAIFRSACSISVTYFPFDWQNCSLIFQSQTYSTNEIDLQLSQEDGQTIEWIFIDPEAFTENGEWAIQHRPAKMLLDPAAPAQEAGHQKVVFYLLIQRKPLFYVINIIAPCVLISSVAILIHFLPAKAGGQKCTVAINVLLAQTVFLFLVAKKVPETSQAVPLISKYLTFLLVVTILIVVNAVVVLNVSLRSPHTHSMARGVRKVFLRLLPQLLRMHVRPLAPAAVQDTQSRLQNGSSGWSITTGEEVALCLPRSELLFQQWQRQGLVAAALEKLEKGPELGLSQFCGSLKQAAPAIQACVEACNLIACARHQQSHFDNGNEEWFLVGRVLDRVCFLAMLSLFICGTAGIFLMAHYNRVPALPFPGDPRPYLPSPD
Sequence of Nicotinic Acetylcholine a1, Bungarotoxin (P11230 24-501, further chain): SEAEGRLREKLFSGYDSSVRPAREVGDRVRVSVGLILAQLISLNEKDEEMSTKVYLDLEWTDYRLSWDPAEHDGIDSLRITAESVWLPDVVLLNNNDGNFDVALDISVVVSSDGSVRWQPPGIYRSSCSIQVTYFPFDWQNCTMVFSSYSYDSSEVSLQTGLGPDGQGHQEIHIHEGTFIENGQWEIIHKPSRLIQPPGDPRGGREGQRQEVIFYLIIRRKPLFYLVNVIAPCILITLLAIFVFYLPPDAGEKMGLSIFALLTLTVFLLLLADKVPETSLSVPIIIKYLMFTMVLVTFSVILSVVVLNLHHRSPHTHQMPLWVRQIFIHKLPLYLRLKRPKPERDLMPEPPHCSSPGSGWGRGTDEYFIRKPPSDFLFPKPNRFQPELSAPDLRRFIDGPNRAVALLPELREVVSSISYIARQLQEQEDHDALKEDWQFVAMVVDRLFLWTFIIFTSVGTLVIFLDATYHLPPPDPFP
Sequence of Nicotinic Acetylcholine a1, Bungarotoxin (Q07001 22-517): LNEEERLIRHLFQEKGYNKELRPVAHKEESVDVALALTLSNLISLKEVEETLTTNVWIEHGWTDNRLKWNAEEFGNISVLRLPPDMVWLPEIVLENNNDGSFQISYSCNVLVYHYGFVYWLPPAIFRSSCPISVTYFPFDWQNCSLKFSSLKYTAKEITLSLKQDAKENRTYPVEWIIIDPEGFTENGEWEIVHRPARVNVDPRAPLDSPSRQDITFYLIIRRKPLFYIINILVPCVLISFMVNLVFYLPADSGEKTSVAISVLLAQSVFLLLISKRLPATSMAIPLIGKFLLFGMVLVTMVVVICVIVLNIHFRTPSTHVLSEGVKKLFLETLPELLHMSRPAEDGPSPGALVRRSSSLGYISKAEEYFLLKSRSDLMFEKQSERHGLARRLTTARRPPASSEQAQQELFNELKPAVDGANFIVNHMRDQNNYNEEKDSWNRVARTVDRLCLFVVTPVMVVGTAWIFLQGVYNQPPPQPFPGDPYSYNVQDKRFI
Sequence of Dopamine D3 (P35462 whole entry): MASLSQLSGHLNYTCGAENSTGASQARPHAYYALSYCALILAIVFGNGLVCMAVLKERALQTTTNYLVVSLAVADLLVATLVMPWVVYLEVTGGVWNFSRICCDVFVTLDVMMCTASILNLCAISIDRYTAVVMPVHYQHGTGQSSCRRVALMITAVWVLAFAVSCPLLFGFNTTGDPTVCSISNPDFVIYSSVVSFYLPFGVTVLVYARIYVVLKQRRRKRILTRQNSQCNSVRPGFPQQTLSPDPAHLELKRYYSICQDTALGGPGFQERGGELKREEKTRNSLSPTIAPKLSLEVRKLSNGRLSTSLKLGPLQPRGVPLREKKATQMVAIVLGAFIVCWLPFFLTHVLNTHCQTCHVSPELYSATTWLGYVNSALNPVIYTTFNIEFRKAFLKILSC
Sequence of Opiate 51 (OP1, DOP) (P41143 whole entry): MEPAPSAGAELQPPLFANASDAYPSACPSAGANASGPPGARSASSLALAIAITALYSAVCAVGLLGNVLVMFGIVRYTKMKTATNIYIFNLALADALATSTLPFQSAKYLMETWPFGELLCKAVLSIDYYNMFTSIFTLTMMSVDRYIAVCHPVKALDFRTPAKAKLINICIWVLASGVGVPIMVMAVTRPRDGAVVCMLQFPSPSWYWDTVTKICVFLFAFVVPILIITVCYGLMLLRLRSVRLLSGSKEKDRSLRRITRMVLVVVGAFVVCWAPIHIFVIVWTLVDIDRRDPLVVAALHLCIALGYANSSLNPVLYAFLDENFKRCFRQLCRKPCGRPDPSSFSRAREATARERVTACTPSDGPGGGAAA
Sequence of Adrenergic β1 (P08588 whole entry): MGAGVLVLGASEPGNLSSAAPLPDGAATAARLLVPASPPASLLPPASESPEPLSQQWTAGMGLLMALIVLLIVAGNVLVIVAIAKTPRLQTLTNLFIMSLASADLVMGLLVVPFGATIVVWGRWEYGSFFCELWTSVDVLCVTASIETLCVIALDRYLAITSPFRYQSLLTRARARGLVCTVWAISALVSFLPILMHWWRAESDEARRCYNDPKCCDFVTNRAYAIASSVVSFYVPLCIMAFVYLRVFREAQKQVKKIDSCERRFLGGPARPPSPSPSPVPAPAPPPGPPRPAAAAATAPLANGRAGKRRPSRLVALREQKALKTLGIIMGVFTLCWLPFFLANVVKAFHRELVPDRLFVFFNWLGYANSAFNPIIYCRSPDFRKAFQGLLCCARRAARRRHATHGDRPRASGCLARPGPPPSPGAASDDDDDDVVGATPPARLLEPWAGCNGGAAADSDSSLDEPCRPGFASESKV
Sequence of Adenosine A2A (P29274 whole entry): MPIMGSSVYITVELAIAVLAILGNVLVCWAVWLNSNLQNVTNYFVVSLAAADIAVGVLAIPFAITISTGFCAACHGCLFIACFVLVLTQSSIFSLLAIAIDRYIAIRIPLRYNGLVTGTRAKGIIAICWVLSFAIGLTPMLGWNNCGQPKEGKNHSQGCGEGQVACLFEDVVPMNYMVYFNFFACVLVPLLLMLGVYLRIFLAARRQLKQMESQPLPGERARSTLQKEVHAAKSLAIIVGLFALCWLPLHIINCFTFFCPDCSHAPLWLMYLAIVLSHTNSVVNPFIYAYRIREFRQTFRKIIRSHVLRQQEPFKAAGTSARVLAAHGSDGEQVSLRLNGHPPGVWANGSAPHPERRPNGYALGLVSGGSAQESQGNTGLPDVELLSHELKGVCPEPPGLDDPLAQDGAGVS
Sequence of Adenosine A3 (P0DMS8 whole entry): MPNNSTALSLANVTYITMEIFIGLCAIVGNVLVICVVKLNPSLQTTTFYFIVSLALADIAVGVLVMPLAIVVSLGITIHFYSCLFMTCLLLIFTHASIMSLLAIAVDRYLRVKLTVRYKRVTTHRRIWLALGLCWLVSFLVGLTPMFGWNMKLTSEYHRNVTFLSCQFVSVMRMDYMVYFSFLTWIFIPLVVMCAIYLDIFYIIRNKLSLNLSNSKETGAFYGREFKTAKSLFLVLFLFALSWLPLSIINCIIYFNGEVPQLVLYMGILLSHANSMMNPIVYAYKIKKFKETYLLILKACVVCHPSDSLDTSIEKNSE
Sequence of Melatonin MT1 (P48039 whole entry): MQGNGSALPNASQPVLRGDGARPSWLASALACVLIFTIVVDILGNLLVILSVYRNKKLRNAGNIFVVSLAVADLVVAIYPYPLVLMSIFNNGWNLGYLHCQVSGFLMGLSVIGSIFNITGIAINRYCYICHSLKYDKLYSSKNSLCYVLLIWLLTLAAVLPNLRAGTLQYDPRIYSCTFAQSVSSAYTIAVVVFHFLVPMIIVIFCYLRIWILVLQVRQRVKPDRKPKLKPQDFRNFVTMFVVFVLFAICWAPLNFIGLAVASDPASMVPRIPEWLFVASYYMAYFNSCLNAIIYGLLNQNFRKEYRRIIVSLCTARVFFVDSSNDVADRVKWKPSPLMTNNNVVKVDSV

With `CCCCCCCCCCCC(=O)OC[C@@H](COP(=O)(O)OCCNC(=O)c1ccc(Cn2c(=O)[nH]c3c(N)nc(OCCOC)nc32)cc1)OC(=O)CCCCCCCCCCC` [TMX-202] the “Percent inhibition of specific radioligand binding” value (Melatonin MT1) was 3%, the “Percent inhibition of specific radioligand binding” value (Imidazoline I2, Central) was −3% and the “Percent inhibition of specific radioligand binding” value [1] was 10%. The “Potency of hIL-12, hIL-6 and hIFN-α induction compared with IMQ” value (human whole blood) was “higher potency”, the “IFN-γ secretion compared with vehicle treated controls” value (human PBMC; PBMC from five independent donors (figure 6C)) was “significantly higher than vehicle treated controls” and the “Average IFN-γ levels in the TMX-202+CM” value (human PBMC; human PBMC 10^6/mL, 1 μM TMX-202, 24 hrs, three donors) was 204 ± 113 pg/mL. The “Percent inhibition of specific radioligand binding” value (Opiate 51 (OP1, DOP)) was 5%, the “Percent inhibition of enzyme activity” value (CYP450, 2C9) was −4% and the “Percent inhibition of specific radioligand binding” value [2] was −3%. For the same compound, the “Percent inhibition of specific radioligand binding” value (Glutamate, Kainate) was 1%, the “Percent inhibition of specific radioligand binding” value (Muscarinic M2) was 0% and the “Percent inhibition of specific radioligand binding” value (Opiate K (OP2, KOP)) was −9%. The “Percent inhibition of specific radioligand binding” value (GABAA, Muscimol, Central) was −3%, the “Percent inhibition of specific radioligand binding” value (Dopamine D4.2) was 14% and the “Percent inhibition of specific radioligand binding” value [3] was 57%. The “Percent inhibition of specific radioligand binding” value (Adrenergic β1) was 18%, the “Percent inhibition of specific radioligand binding” value [4] was 1% and the “Serum level of the compound one hour after the application” value [5] was 2.6 ± 0.6 pg/mL. For the same compound, the “Percent inhibition of specific radioligand binding” value (Adenosine A3) was 6%, the “Potency of mIL-6 and mIL-1β induction compared with IMQ” value [6] was “more potent cytokine inducer” and the “Percent inhibition of specific radioligand binding” value (Estrogen ERa) was 7%. The “Percent inhibition of specific radioligand binding” value (Purinergic P2x) was 9%, the “MTD (molar)” value ([7]; C57BL/6 mice, intravenous administration) was “approximately 163 μmoles/kg” and the “Body weight change after a single intravenous injection of the MTD” value ([7]; Tlr7−/− or Myd88−/− mice) was “no significant body weight loss”. The “Body weight change after a single intravenous injection of the MTD” value ([7]; WT mice) was “significant reduction in body weight”, the “Percent inhibition of specific radioligand binding” value (Adrenergic β2) was 3% and the “Percent inhibition of specific radioligand binding” value (Adenosine A2A) was −8%. The “Percent inhibition of specific radioligand binding” value (Potassium Channel [KATP]) was 8%, the “Percent inhibition of specific radioligand binding” value (Dopamine D3) was 15% and the “Percent inhibition of specific radioligand binding” value (Rolipram) was 21%. The “Percent inhibition of enzyme activity” value (CYP450, 2D6) was 0% and the “Percent inhibition of specific radioligand binding” value (Nicotinic Acetylcholine) was 9%.
